Source: patent publication US20210278408A1, “METHODS OF TREATMENT OF CANCER WITH SUBSTITUTED PYRROLE AND PYRAZOLE COMPOUNDS AND DIAGNOSIS OF CANCERS SUSCEPTIBLE TO TREATMENT WITH SUBSTITUTED PYRROLE AND PYRAZOLE COMPOUNDS” (Bantam Pharmaceutical, LLC, priority 2018, published 2021)
pIC50: −log10 of the molar value. Like-named read-outs stand apart in the source and are kept apart here.

System: 407 cancer cell lines
Test: Cell viability of cancer cell lines (IC50), CellTiter-Glo Viability Assay, 96 h
Type: cell-based
Details: Homo sapiens, read-out: Absolute IC50
Method: Viability was determined by using the 50% inhibitory concentration (IC50) as determined with the CellTiter-Glo® Viability Assay (Promega).
Experiments were initiated by first thawing and equilibrating the CellTiter-Glo® Buffer to room temperature. The lyophilized CellTiter-Glo® Substrate was also equilibrated to room temperature. The lyophilized substrate was reconstituted with the CellTiter-Glo® buffer to form the CellTiter-Glo® Reagent.
Cells were harvested during the logarithmic growth period, counted, and the cell concentration adjusted to 4.44×10^4 cells/mL using culture medium.
Cells were allowed to grow overnight and the following day, the TO reading was obtained by adding 10 μL culture medium to each well of Plate A. The plate was allowed to equilibrate at room temperature for thirty minutes, after which 50 μL CellTiter-Glo® reagent was added to each well. The contents were mixed for 5 min on an orbital shaker to induce cell lysis. Plates were incubated for 20 minutes to stabilize the luminescent signal and the TO luminescence recorded.
Test plate B was incubated for 96 h in the humidified incubator at 37° C. with 5% CO2.
Following the incubation, the plate was equilibrated at room temperature for thirty minutes. CellTiter-Glo® (50 μL) was added to each well of the plate and contents mixed for five minutes on an orbital shaker to induce cell lysis. The luminescent signal was allowed to stabilize at room temperature for 20 minutes and the luminescence recorded.
IC50 (EC50) was calculated using a dose-response curve, fitted using a nonlinear regression model with a sigmoidal dose response. Survival rate was calculated using the formula:
The Surviving rate (%)=(LumTest article−LumMedium control)/(LumNon-treated−LumMedium control)×100%.
Absolute IC50 (EC50) was calculated according to the dose-response curve generated by the statistical software (GraphPad Prism 5.0).

For Cc1nn(-c2nc(-c3ccc(C(F)(F)F)cc3)c(SC(C)C)s2)c(C(=O)O)c1-c1cccc(F)c1 [Compound A197, 4-(3-fluorophenyl)-1-(5-(isopropylthio)-4-(4-(trifluoromethyl)phenyl)thiazol-2-yl)-3-methyl-1H-pyrazole-5-carboxylic acid], the pIC50 (DMS-79, DMS 79) was < 4.52, the pIC50 (DMS-114, 96 h, DMS 114 cells, 96 h) was < 4.52 and the pIC50 (DOHH-2, 96 h, DOHH-2 cells, 96 h) was 6.51. For the same compound, the pIC50 (DU-145, 96 h, DU 145, 96 h) was 6.07, the pIC50 (DU-4475, DU4475) was 6.49 and the pIC50 (DV-90, 96 h, DV-90 cells, 96 h) was < 4.52. For the same compound, the pIC50 (Daoy, 96 h, Daoy cells, 96 h) was < 4.52, the pIC50 (Daudi, 96 h, Daudi cells, 96 h) was 6.09 and the pIC50 (Detroit 562, 96 h, Detroit 562 cells, 96 h) was < 4.52. For the same compound, the pIC50 (DoTc2-4510, 96 h, DoTc2 4510 cells, 96 h) was < 4.52, the pIC50 (EBC-1, 96 h) was < 4.52 and the pIC50 (EJM, 96 h, EJM cells, 96 h) was 5.52. The pIC50 (EOL1, EOL-1) was 6.13, the pIC50 (ES-2, 96 h, ES-2 cells, 96 h) was < 4.52 and the pIC50 (FTC-133, FTC-133) was 6.08. The pIC50 (FaDu, 96 h, FaDu, 96 h) was 6.42, the pIC50 (G292, 96 h, G-292 clone A141B1 cells, 96 h) was 5.73 and the pIC50 (GTL 16, 96 h, GTL-16 cells, 96 h) was < 4.52. The pIC50 (Granta-519, GRANTA-519) was 6.00, the pIC50 (HCC38, HCC38) was < 4.52 and the pIC50 (HCC78, 96 h, HCC-78 cells, 96 h) was 6.39. For the same compound, the pIC50 (HCC827, 96 h, HCC827 cells, 96 h) was < 4.52, the pIC50 (HCC1187, 96 h, HCC1187 cells, 96 h) was < 4.52 and the pIC50 (HCC1428, HCC1428) was < 4.52. The pIC50 (HCC1569, HCC1569) was < 4.52, the pIC50 (HCC1806, 96 h, HCC1806 cells, 96 h) was < 4.52 and the pIC50 (HCC1937, HCC1937) was < 4.52. For the same compound, the pIC50 (HCC1954, HCC1954) was < 4.52, the pIC50 (HCC2218, 96 h) was < 4.52 and the pIC50 (HCC2935, HCC2935) was < 4.52. The pIC50 (HCC4006, 96 h) was 6.34, the pIC50 (HCCLM3, 96 h, HCCLM3 cells, 96 h) was < 4.52 and the pIC50 (HCT-8, HCT-8) was 6.11. For the same compound, the pIC50 (HCT-15, HCT-15) was 6.52, the pIC50 (HCT-116, HCT-116) was 6.04 and the pIC50 (HEC-1-A, 96 h, HEC-1-A cells, 96 h) was < 4.52. The pIC50 (HEC-1B, 96 h, HEC-1-B cells, 96 h) was 6.26, the pIC50 (HEL 92.1.7, HEL 92.1.7) was 6.42 and the pIC50 (HGC-27, 96 h, HGC-27 cells, 96 h) was 6.29. The pIC50 (HL-60, HL-60) was 6.00, the pIC50 (HLE, 96 h, HLE cells, 96 h) was < 4.52 and the pIC50 (HOS, 96 h, HOS cells, 96 h) was < 4.52. The pIC50 (HPAC) was 6.34, the pIC50 (HT55, HT-55) was < 4.52 and the pIC50 (HT-3, 96 h, HT-3 cells, 96 h) was < 4.52. The pIC50 (HT-29, HT-29) was 5.90, the pIC50 (HT-1080, 96 h) was 5.98 and the pIC50 (HT-1376, HT-1376) was < 4.52. The pIC50 (HeLa 229, 96 h, HeLa 229 cells, 96 h) was < 4.52, the pIC50 (HeLa, 96 h, HeLa cells, 96 h) was 5.76 and the pIC50 (Hep3B) was < 4.52. The pIC50 (HepG2, Hep G2) was < 4.52, the pIC50 (HuCCT-1, 96 h, HuCCT1, 96 h) was < 4.52 and the pIC50 (HuH-1, HUH-1) was < 4.52. It also gave a pIC50 (HuT78, HuT 78) of 6.20, a pIC50 (HuTu80, Hutu 80) of 6.07 and a pIC50 (Huh-7, 96 h, HUH-7 cells, 96 h) of 5.98. It also gave a pIC50 (IMR-32, 96 h, IMR-32 cells, 96 h) of 6.10, a pIC50 (Ishikawa, 96 h, Ishikawa, 96 h) of 6.54 and a pIC50 (J82, 96 h, J82 cells, 96 h) of 5.95. For the same compound, the pIC50 (JEG-3, 96 h, JEG-3 cells, 96 h) was 5.97, the pIC50 (JIMT-1, 96 h, JIMT-1 cells, 96 h) was < 4.52 and the pIC50 (JJN-3, 96 h, JJN-3 cells, 96 h) was 5.87. It also gave a pIC50 (JVM-2, JVM-2) of 6.14, a pIC50 (JVM-3, JVM-3) of 6.57 and a pIC50 (JeKo-1, 96 h, JeKo-1 cells, 96 h) of 6.10. The pIC50 (Jurkat, Jurkat clone E6-1) was 6.19, the pIC50 (K562, K-562) was 6.24 and the pIC50 (KARPAS-299, 96 h, KARPAS-299 cells, 96 h) was < 4.52. For the same compound, the pIC50 (KARPAS-422, KARPAS-422) was 6.11, the pIC50 (KATO III, 96 h, KATO III, 96 h) was < 4.52 and the pIC50 (KG-1, KG-1) was 5.98. For the same compound, the pIC50 (KHOS/NP, 96 h, KHOS/NP cells, 96 h) was < 4.52, the pIC50 (KM-H2, 96 h, KMH-2 cells, 96 h) was 5.84 and the pIC50 (KMS-11, KMS-11) was 6.20. The pIC50 (KP-4, 96 h, KP4 cells, 96 h) was 6.28, the pIC50 (KYSE-70, KYSE-70) was 6.34 and the pIC50 (KYSE-150, KYSE-150) was 6.12. The pIC50 (KYSE-270, KYSE-270) was 5.32, the pIC50 (KYSE-410, 96 h, KYSE-410 cells, 96 h) was < 3.52 and the pIC50 (Kasumi 1, Kasumi-1) was 5.96. For the same compound, the pIC50 (L-363, L-363) was 6.06, the pIC50 (LN-18, 96 h, LN-18 cells, 96 h) was 6.28 and the pIC50 (LN-229, 96 h, LN-229 cells, 96 h) was < 4.52. The pIC50 (LNCaP-Clone-FGC, 96 h, LNCaP clone FGC, 96 h) was 6.74, the pIC50 (LP-1, LP-1) was 6.31 and the pIC50 (LS180, LS 180) was < 4.52. For the same compound, the pIC50 (LS-123, 96 h, LS123 cells, 96 h) was < 4.52, the pIC50 (LS-411N, LS411N) was 6.15 and the pIC50 (LS-513, 96 h, LS513 cells, 96 h) was 6.15. The pIC50 (LS-1034, 96 h, LS1034 cells, 96 h) was < 4.52, the pIC50 (LoVo) was < 4.52 and the pIC50 (MCF7, MCF7) was < 4.52. For the same compound, the pIC50 (MDA-MB-231, MDA-MB-231) was < 4.52, the pIC50 (MDA-MB-415, MDA-MB-415) was < 4.52 and the pIC50 (MDA-MB-436, 96 h) was < 4.52. For the same compound, the pIC50 (MDA-MB-453, MDA-MB-453) was < 4.52, the pIC50 (MDA-MB-468, 96 h, MDA-MB-468 cells, 96 h) was 6.28 and the pIC50 (ME-180, 96 h, ME-180 cells, 96 h) was 6.26. It also gave a pIC50 (MEG-01, MEG-01) of 5.81, a pIC50 (MES-SA, 96 h, MES-SA cells, 96 h) of 6.31 and a pIC50 (MES-SA/Dx5, 96 h, MES-SA/DX5 cells, 96 h) of 6.47. The pIC50 (MFE-296, 96 h, MFE-296 cells, 96 h) was < 4.52, the pIC50 (MHCC97H, MHCC97-H) was 5.49 and the pIC50 (MIA PaCa-2, MIA PaCa-2) was 5.54. The pIC50 (MKN-1, 96 h, MKN1 cells, 96 h) was 5.53, the pIC50 (MKN-45, 96 h, MKN45, 96 h) was < 4.52 and the pIC50 (MKN-74, 96 h, MKN74 cells, 96 h) was < 4.52. For the same compound, the pIC50 (ML-2, ML-2) was 6.34, the pIC50 (MM1.S, MM.1S) was < 4.52 and the pIC50 (MOLM-13, 96 h, MOLM-13 cells, 96 h) was 6.06. It also gave a pIC50 (MOLP-8, 96 h, MOLP8 cells, 96 h) of 6.00, a pIC50 (MOLT-4, Molt-4) of 6.21 and a pIC50 (MSTO-211H, 211 h, MsTo 211H) of 6.26. For the same compound, the pIC50 (MV4-11, 96 h, MV-4-11 cells, 96 h) was 6.49, the pIC50 (MX1, MX-1) was < 4.52 and the pIC50 (NALM-6, NALM-6) was 6.15. The pIC50 (NB-4, 96 h, NB4 cells, 96 h) was 6.96, the pIC50 (NCI-H23, 96 h, NCI-H23 cells, 96 h) was 6.12 and the pIC50 (NCI-H69, 96 h, NCI-H69 cells, 96 h) was < 4.52. For the same compound, the pIC50 (NCI-H82, 96 h) was 6.12, the pIC50 (NCI-H146, 96 h, NCI-H146 cells, 96 h) was < 4.52 and the pIC50 (NCI-H187, NCI-H187) was 6.48. The pIC50 (NCI-H209, 96 h, NCI-H209 cells, 96 h) was < 4.52 and the pIC50 (NCI-H226, NCI-H226) was 5.68.
